Measured values reported in patent US11613527B2, “Enzyme inhibitors” (KalVista Pharmaceuticals Limited, priority 2019, dated 2023).
pIC50: −log10 of the molar value.

What was measured:
Type in all cases: biochemical
Human plasma kallikrein = Human plasma kallikrein (Homo sapiens (Human), UniProt P03952); test: Determination of the IC50 for plasma kallikrein (fluorogenic substrate H-DPro-Phe-Arg-AFC); conditions: class symbols A-D, read-out: IC50 (human PKal)
Experimental: The ability of the compounds of formula (I) to inhibit plasma kallikrein may be determined using the following biological assay:
Determination of the IC50 for Plasma Kallikrein
(§1) Plasma kallikrein inhibitory activity in vitro was determined using standard published methods (see e.g. Johansen et al., Int. J. Tiss. Reac. 1986, 8, 185; Shori et al., Biochem. Pharmacol., 1992, 43, 1209; Sturzebecher et al., Biol. Chem. Hoppe-Seyler, 1992, 373, 1025). Human plasma kallikrein (Protogen) was incubated at 25° C. with the fluorogenic substrate H-DPro-Phe-Arg-AFC and various concentrations of the test compound. Residual enzyme activity (initial rate of reaction) was determined by measuring the change in optical absorbance at 410 nm and the IC50 value for the test compound was determined.

Human KLK1 = Human KLK1 (Homo sapiens (Human), UniProt P06870); test: Determination of the IC50 for KLK1 (fluorogenic substrate H-DVal-Leu-Arg-AFC)
Experimental: Selected compounds were further screened for inhibitory activity against the related enzyme KLK1. The ability of the compounds of formula (I) to inhibit KLK1 may be determined using the following biological assay:
Determination of the IC50 for KLK1
as §1, with “KLK1” for “Plasma kallikrein”, “KLK1 (Callbiochem)” for “plasma kallikrein (Protogen)”, “H-DVal-Leu-Arg-AFC” for “H-DPro-Phe-Arg-AFC”

Human FXIa = Human FXIa (Homo sapiens (Human), UniProt P03951); test: Determination of the % inhibition for FXIa (fluorogenic substrate Z-Gly-Pro-Arg-AFC; 40 μM or IC50)
Experimental: Selected compounds were further screened for inhibitory activity against the related enzyme FXIa. The ability of the compounds of formula (I) to inhibit FXIa may be determined using the following biological assay:
Determination of the % Inhibition for FXIa
FXIa inhibitory activity in vitro was determined using standard published methods (see e.g. Johansen et al., Int. J. Tiss. Reac. 1986, 8, 185; Shori et al., Biochem. Pharmacol., 1992, 43, 1209; Sturzebecher et al., Biol. Chem. Hoppe-Seyler, 1992, 373, 1025). Human FXIa (Enzyme Research Laboratories) was incubated at 25° C. with the fluorogenic substrate Z-Gly-Pro-Arg-AFC and 40 μM of the test compound (or alternatively at various concentrations of the test compound in order to determine IC50). Residual enzyme activity (initial rate of reaction) was determined by measuring the change in optical absorbance at 410 nm and the IC50 value for the test compound was determined.

Chain of Human KLK1 (P06870 25-262): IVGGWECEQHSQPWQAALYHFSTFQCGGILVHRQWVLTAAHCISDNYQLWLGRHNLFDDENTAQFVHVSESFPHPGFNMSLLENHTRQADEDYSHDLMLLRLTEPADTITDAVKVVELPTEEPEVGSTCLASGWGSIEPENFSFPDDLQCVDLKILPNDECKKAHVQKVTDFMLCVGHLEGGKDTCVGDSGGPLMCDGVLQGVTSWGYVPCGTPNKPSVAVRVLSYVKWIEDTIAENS
Chain of Human FXIa (P03951 388-625): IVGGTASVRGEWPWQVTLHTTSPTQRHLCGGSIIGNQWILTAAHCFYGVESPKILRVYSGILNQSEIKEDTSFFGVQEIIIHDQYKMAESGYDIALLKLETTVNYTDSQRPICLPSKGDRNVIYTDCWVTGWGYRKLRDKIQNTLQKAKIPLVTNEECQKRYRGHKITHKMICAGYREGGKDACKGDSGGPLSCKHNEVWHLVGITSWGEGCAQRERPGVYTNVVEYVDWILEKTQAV
Chain of Human FXIa (P03951 19-387 partner): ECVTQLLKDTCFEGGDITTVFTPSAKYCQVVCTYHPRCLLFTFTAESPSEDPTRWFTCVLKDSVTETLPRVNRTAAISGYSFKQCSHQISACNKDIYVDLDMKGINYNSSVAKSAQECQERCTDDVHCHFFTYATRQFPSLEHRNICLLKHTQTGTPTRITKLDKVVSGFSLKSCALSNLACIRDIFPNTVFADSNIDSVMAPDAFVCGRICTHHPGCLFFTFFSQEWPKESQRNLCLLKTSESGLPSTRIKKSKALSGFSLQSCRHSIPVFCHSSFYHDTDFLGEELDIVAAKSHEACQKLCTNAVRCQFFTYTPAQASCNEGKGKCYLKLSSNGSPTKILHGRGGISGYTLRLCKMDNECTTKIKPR
Chain of Human plasma kallikrein (P03952 391-638): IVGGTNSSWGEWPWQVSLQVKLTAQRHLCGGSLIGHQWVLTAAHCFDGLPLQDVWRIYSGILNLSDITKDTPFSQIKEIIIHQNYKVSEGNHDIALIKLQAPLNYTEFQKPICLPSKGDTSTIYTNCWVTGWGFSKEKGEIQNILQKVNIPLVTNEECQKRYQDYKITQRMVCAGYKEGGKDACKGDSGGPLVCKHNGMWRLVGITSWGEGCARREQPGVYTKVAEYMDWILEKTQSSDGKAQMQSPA
Chain of Human plasma kallikrein (P03952 20-390 partner): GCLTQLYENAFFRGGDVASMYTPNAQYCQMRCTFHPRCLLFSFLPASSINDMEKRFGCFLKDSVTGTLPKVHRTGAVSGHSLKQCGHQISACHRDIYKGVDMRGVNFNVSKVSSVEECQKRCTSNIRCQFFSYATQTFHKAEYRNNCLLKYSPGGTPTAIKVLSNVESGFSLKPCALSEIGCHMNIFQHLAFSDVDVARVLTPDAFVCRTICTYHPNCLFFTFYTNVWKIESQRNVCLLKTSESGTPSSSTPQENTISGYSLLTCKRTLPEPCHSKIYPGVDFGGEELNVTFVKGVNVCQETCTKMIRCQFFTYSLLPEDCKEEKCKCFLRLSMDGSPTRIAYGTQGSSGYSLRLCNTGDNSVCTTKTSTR

| SMILES | pIC50 (Human plasma kallikrein) | pIC50 (Human KLK1) | pIC50 (Human FXIa) |
| --- | --- | --- | --- |
| COCc1nn(Cc2ccc3c(c2)CCN(C)CC3)cc1C(=O)NCc1c(-n2cc(C)nn2)ccc(OC)c1F [Example 121, N-{[2-fluoro-3-methoxy-6-(4-methyl-1,2,3-triazol-1-yl)phenyl]methyl}-3-(methoxymethyl)-1-[(3-methyl-1,2,4,5-tetrahydro-3-benzazepin-7-yl)methyl]pyrazole-4-carboxamide] | > 8.00 | < 4.40 | < 4.40 |
| COCc1nn(Cc2ccc3c(c2)CN(C)C3)cc1C(=O)NCc1c(-n2cnc(C(F)F)n2)ccc(OC)c1F [Example 57, N-({6-[3-(difluoromethyl)-1,2,4-triazol-1-yl]-2-fluoro-3-methoxyphenyl}methyl)-3-(methoxymethyl)-1-[(2-methyl-1,3-dihydroisoindol-5-yl)methyl]pyrazole-4-carboxamide] | > 8.00 | < 4.40 | 4.54 |
| COCc1nn(Cc2ccc3c(c2)CN(C2CC2)CC3)cc1C(=O)NCc1c(-n2cnc(C(F)(F)F)n2)ccc(OC)c1F [Example 20, 1-[(2-cyclopropyl-3,4-dihydro-1H-isoquinolin-7-yl)methyl]-N-({2-fluoro-3-methoxy-6-[3-(trifluoromethyl)-1,2,4-triazol-1-yl]phenyl}methyl)-3-(methoxymethyl)pyrazole-4-carboxamide] | 7.52 to 8.00 | < 4.40 | < 4.40 |
| COCc1nn(Cc2ccc3c(c2)CN(C)CCO3)cc1C(=O)NCc1c(-n2cc(C)nn2)ccc(OC)c1F [Example 108, N-{[2-fluoro-3-methoxy-6-(4-methyl-1,2,3-triazol-1-yl)phenyl]methyl}-3-(methoxymethyl)-1-[(4-methyl-3,5-dihydro-2H-1,4-benzoxazepin-7-yl)methyl]pyrazole-4-carboxamide] | 6.00 to 7.00 | < 4.40 | < 4.40 |
| COCc1nn(Cc2ccc3c(c2)CCN(C2CC2)C3)cc1C(=O)NCc1c(-n2cnc(C(F)(F)F)n2)ccc(OC)c1F [Example 48, 1-[(2-cyclopropyl-3,4-dihydro-1H-isoquinolin-6-yl)methyl]-N-({2-fluoro-3-methoxy-6-[3-(trifluoromethyl)-1,2,4-triazol-1-yl]phenyl}methyl)-3-(methoxymethyl)pyrazole-4-carboxamide] | 7.00 to 7.52 | < 4.40 | < 4.40 |
| COCc1nn(Cc2ccc3c(c2)CNCC3(C)C)cc1C(=O)NCc1c(-n2cc(C)nn2)ccc(OC)c1F [Example 130, 1-[(4,4-dimethyl-2,3-dihydro-1H-isoquinolin-7-yl)methyl]-N-{[2-fluoro-3-methoxy-6-(4-methyl-1,2,3-triazol-1-yl)phenyl]methyl}-3-(methoxymethyl)pyrazole-4-carboxamide] | 7.52 to 8.00 | – | – |
| COc1ccc(-n2cc(C)nn2)c(CNC(=O)c2cn(Cc3ccc4c(n3)CN(C)CC4)nc2C(F)(F)F)c1F [Example 131, N-{[2-fluoro-3-methoxy-6-(4-methyl-1H-1,2,3-triazol-1-yl)phenyl]methyl}-1-[(7-methyl-5,6,7,8-tetrahydro-1,7-naphthyridin-2-yl)methyl]-3-(trifluoromethyl)-1H-pyrazole-4-carboxamide] | 7.52 to 8.00 | – | – |
| COCc1nn(Cc2ccc3c(c2)C(C)(C)N(C)CC3)cc1C(=O)NCc1c(-n2cc(C)nn2)ccc(OC)c1F [Example 129, N-{[2-fluoro-3-methoxy-6-(4-methyl-1,2,3-triazol-1-yl)phenyl]methyl}-3-(methoxymethyl)-1-[(1,1,2-trimethyl-3,4-dihydroisoquinolin-7-yl)methyl]pyrazole-4-carboxamide] | 7.52 to 8.00 | – | – |

Other lines, results leading:

| pIC50 (Human plasma kallikrein) | pIC50 (Human KLK1) | pIC50 (Human FXIa) | SMILES |
| --- | --- | --- | --- |
| 7.00 to 7.52 | < 4.40 | < 4.40 | COc1ccc(-n2cc(C)nn2)c(CNC(=O)c2cn(Cc3cn4c(n3)CN(C)CC4)nc2C(F)(F)F)c1F [Example 61, N-{[2-fluoro-3-methoxy-6-(4-methyl-1,2,3-triazol-1-yl)phenyl]methyl}-1-({7-methyl-5H,6H,8H-imidazo[1,2-a]pyrazin-2-yl}methyl)-3-(trifluoromethyl)pyrazole-4-carboxamide] |
| 7.00 to 7.52 | < 4.40 | < 4.40 | COCc1nn(Cc2cc(F)cc3c2CCN(C)C3)cc1C(=O)NCc1c(-n2cc(C)nn2)ccc(OC)c1F [Example 103, 1-[(7-fluoro-2-methyl-3,4-dihydro-1H-isoquinolin-5-yl)methyl]-N-{[2-fluoro-3-methoxy-6-(4-methyl-1,2,3-triazol-1-yl)phenyl]methyl}-3-(methoxymethyl)pyrazole-4-carboxamide] |
| > 8.00 | < 4.40 | 4.52 | COCc1nn(Cc2ccc3c(c2)C(F)(F)CN(C)C3)cc1C(=O)NCc1c(-n2cc(C)nn2)ccc(OC)c1F [Example 105, 1-[(4,4-difluoro-2-methyl-1,3-dihydroisoquinolin-6-yl)methyl]-N-{[2-fluoro-3-methoxy-6-(4-methyl-1,2,3-triazol-1-yl)phenyl]methyl}-3-(methoxymethyl)pyrazole-4-carboxamide] |
| > 8.00 | < 4.40 | < 4.40 | COCc1nn(Cc2ccc3c(c2)CN(C)CC3)cc1C(=O)NCc1c(-n2cncn2)ccc(OC)c1F [Example 7, N-{[2-fluoro-3-methoxy-6-(1,2,4-triazol-1-yl)phenyl]methyl}-3-(methoxymethyl)-1-[(2-methyl-3,4-dihydro-1H-isoquinolin-7-yl)methyl]pyrazole-4-carboxamide] |
| 7.52 to 8.00 | < 4.40 | < 4.40 | COc1ccc(-n2cc(C)nn2)c(CNC(=O)c2cn(Cc3ccc4c(c3)CN(C(C)C)C4)c(C3CC3)n2)c1F [Example 150, 2-cyclopropyl-N-{[2-fluoro-3-methoxy-6-(4-methyl-1,2,3-triazol-1-yl)phenyl]methyl}-1-[(2-isopropyl-1,3-dihydroisoindol-5-yl)methyl]imidazole-4-carboxamide] |
| > 8.00 | < 4.40 | < 4.40 | COCc1nn(Cc2ccc3c(c2F)CN(C)CC3)cc1C(=O)NCc1c(-n2cc(C)nn2)ccc(OC)c1F [Example 107, 1-[(8-fluoro-2-methyl-3,4-dihydro-1H-isoquinolin-7-yl)methyl]-N-{[2-fluoro-3-methoxy-6-(4-methyl-1,2,3-triazol-1-yl)phenyl]methyl}-3-(methoxymethyl)pyrazole-4-carboxamide] |
| 7.52 to 8.00 | < 4.40 | < 4.40 | COCc1nn(Cc2ccc3c(c2)CN(C)CC3)cc1C(=O)NCc1c(-n2ccc(C(F)(F)F)n2)ccc(OC)c1F [Example 8, N-({2-fluoro-3-methoxy-6-[3-(trifluoromethyl)pyrazol-1-yl]phenyl}methyl)-3-(methoxymethyl)-1-[(2-methyl-3,4-dihydro-1H-isoquinolin-7-yl)methyl]pyrazole-4-carboxamide] |
| > 8.00 | < 4.40 | 4.79 | CCN1Cc2ccc(Cn3cc(C(=O)NCc4c(-n5cc(C)nn5)ccc(OC)c4F)c(COC)n3)cc2C1 [Example 56, 1-[(2-ethyl-1,3-dihydroisoindol-5-yl)methyl]-N-{[2-fluoro-3-methoxy-6-(4-methyl-1,2,3-triazol-1-yl)phenyl]methyl}-3-(methoxymethyl)pyrazole-4-carboxamide] |
| 7.52 to 8.00 | < 4.40 | 4.79 | COCc1nn(Cc2ccc3c(c2)CCN(C)C3=O)cc1C(=O)NCc1c(-n2cc(C)nn2)ccc(OC)c1F [Example 135, N-{[2-fluoro-3-methoxy-6-(4-methyl-1,2,3-triazol-1-yl)phenyl]methyl}-3-(methoxymethyl)-1-[(2-methyl-1-oxo-3,4-dihydroisoquinolin-6-yl)methyl]pyrazole-4-carboxamide] |
| 7.00 to 7.52 | – | – | COCc1nn(Cc2ccc3c(c2)C(C)(C)NCC3)cc1C(=O)NCc1c(-n2cc(C)nn2)ccc(OC)c1F [Example 128, 1-[(1,1-dimethyl-3,4-dihydro-2H-isoquinolin-7-yl)methyl]-N-{[2-fluoro-3-methoxy-6-(4-methyl-1,2,3-triazol-1-yl)phenyl]methyl}-3-(methoxymethyl)pyrazole-4-carboxamide] |
| > 8.00 | – | – | COc1ccc(-n2cc(C)nn2)c(CNC(=O)c2cn(Cc3ccc4c(c3)CN(C)CC4)nc2C(F)F)c1F [Example 33, 3-(difluoromethyl)-N-{[2-fluoro-3-methoxy-6-(4-methyl-1,2,3-triazol-1-yl)phenyl]methyl}-1-[(2-methyl-3,4-dihydro-1H-isoquinolin-7-yl)methyl]pyrazole-4-carboxamide] |
